Eleven molecules from patent publication US20170022171A1, “2,5-DISUBSTITUTED CYCLOPENTANECARBOXYLIC ACIDS AND THEIR USE” (Bayer Pharma Aktiengesellschaft, priority 2014, published 2017) can be followed below.

pIC50: −log10 of the molar value.

Common to all, as to type: biochemical
Experiment [1] concerns the target T1, human macrophage elastase (HME/hMMP-12) (Homo sapiens, UniProt P39900).
T1 construct: 0.5 nM HME; purchased R&D Systems 917-MP
The experiment can be described thus: In vitro HME inhibition test (standard or high-sensitivity). As to conditions: in some cases mean values. In a few lines: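 Fluorogenic assay: 0.5 nM autoactivated HME with 5 µM Mca-Pro-Leu-Gly-Leu-Glu-Glu-Ala-Dap(Dnp)-NH2 in HEPES pH 7.4 buffer (NaCl, CaCl2, ZnCl2, EDTA, Brij), 2 h at 37 °C; ex 323/em 393 nm. IC50 from fluorescence versus concentration. High-sensitivity format: ~0.05 nM enzyme, ~16 h incubation.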

Another experiment deals with T2, MMP-16 (Homo sapiens, UniProt P51512).
T2 construct: purchased R&D Systems 1785-MP
T2 sequence (P51512 120-564 limits assumed): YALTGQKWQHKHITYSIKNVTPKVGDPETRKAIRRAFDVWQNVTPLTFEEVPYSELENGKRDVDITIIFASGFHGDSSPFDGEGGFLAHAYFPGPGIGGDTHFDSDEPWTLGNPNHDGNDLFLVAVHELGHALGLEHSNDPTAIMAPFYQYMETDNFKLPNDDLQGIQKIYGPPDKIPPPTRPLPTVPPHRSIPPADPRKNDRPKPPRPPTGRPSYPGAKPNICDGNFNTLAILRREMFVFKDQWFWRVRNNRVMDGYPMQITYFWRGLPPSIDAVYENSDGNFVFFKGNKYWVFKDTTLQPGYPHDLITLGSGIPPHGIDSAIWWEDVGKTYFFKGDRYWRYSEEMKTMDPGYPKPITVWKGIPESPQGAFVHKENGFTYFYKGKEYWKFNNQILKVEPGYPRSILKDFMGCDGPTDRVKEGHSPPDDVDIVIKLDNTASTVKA
Put plainly: In vitro MMP-16 inhibition test. From the text:
(§1) The MMP-mediated amidolytic cleavage of a suitable peptide substrate leads to an increase in fluorescent light here too. The signal intensity of the fluorescent light is directly proportional to the enzyme activity. The active concentration of a test compound at which half the enzyme is inhibited (50% signal intensity of the fluorescent light) is reported as the IC50 value.
Recombinant MMP-16 (from R&D Systems, 1785-MP) is enzymatically activated in accordance with the manufacturer's instructions using recombinant furin (from R&D Systems, 1503-SE). 1 μl of the test compound to be analysed (as a solution in DMSO, suitable concentrations e.g. 1 nM to 30 μM) is pipetted into 24 μl of activated enzyme (final concentration e.g. 1 nM) in reaction buffer (50 mM Tris/HCl pH 7.5, 10 mM CaCl2, 150 mM NaCl, 0.05% Brij®-35) in a white 384-hole microtiter plate (MTP). The enzymatic reaction is started by adding the intramolecularly quenched Mca-Lys-Pro-Leu-Gly-Leu-Dpa(Dnp)-Ala-Arg-NH2 substrate (final concentration, for example, 5 μM; R&D Systems, ES-010), so as to result in a total test volume of 50 The course of the MMP-16 reaction is measured by measuring the fluorescence intensity (excitation 320 nm, emission 410 nm) over a suitable period of time (for example over 120 min at a temperature of 32° C.).

In a further experiment the target is T3, MMP-10 (Homo sapiens, UniProt P09238).
T3 construct: purchased R&D Systems 910-MP
T3 sequence (P09238 99-476): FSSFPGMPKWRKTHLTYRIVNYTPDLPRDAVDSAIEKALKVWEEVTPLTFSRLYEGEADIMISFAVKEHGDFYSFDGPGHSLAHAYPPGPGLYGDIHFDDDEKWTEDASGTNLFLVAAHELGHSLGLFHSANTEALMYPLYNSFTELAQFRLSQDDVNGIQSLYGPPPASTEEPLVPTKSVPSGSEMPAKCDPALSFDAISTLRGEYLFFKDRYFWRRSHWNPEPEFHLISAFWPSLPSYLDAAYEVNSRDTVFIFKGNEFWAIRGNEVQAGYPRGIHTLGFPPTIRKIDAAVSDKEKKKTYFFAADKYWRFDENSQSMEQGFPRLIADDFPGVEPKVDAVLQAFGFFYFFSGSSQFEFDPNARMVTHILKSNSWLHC
The experiment can be described thus: In vitro MMP-10 inhibition test.
Text: as §1
Recombinant MMP-10 (from R&D Systems, 910-MP) is chemically activated in accordance with the manufacturer's instructions using APMA. 1 μl of the test compound to be analysed (as a solution in DMSO, suitable concentrations, for example, 1 nM to 30 μM) is pipetted into 24 μl of activated enzyme (final concentration, for example, 2 nM) in reaction buffer (50 mM Tris/HCl pH 7.5, 10 mM CaCl2, 150 mM NaCl, 0.05% Brij®-35) in a white 384-hole microtiter plate (MTP). The enzymatic reaction is started by adding the intramolecularly quenched Mca-Arg-Pro-Lys-Pro-Val-Glu-Nval-Trp-Arg-Lys(Dnp)-NH2 substrate (final concentration, for example, 10 μM; R&D Systems, ES-002), so as to result in a total test volume of 50 μl. The course of the MMP-10 reaction is measured by measuring the fluorescence intensity (excitation 320 nm, emission 410 nm) over a suitable period of time (for example over 120 min at a temperature of 32° C.).

For the next experiment, the target named is T4, MMP-13 (Homo sapiens, UniProt P45452).
T4 construct: purchased R&D Systems 511-MP
The experiment can be described thus: In vitro MMP-13 inhibition test.
Text: as §1
Recombinant MMP-13 (from R&D Systems, 511-MP) is chemically activated in accordance with the manufacturer's instructions using APMA. 1 μl of the test compound to be analysed (as a solution in DMSO, suitable concentrations, for example, 1 nM to 30 μM) is pipetted into 24 μl of activated enzyme (final concentration, for example, 0.1 nM) in reaction buffer (50 mM Tris/HCl pH 7.5, 10 mM CaCl2, 150 mM NaCl, 0.05% Brij®-35) in a white 384-hole microtiter plate (MTP). The enzymatic reaction is started by adding the intramolecularly quenched Mca-Pro-Leu-Gly-Leu-Dpa(Dnp)-Ala-Arg-NH2 substrate (final concentration, for example, 10 μM; R&D Systems, ES-001), so as to result in a total test volume of 50 The course of the MMP-13 reaction is measured by measuring the fluorescence intensity (excitation 320 nm, emission 410 nm) over a suitable period of time (for example over 120 min at a temperature of 32° C.).

The target in another experiment is T5, MMP-14 (Homo sapiens, UniProt P50281).
T5 construct: purchased R&D Systems 918-MP
The experiment can be described thus: In vitro MMP-14 inhibition test.
Text: as §1
Recombinant MMP-14 (from R&D Systems, 918-MP) is enzymatically activated in accordance with the manufacturer's instructions using recombinant furin (from R&D Systems, 1503-SE). 1 μl of the test compound to be analysed (as a solution in DMSO, suitable concentrations e.g. 1 nM to 30 μM) is pipetted into 24 μl of activated enzyme (final concentration e.g. 0.5 nM) in reaction buffer (50 mM Tris/HCl pH 7.5, 10 mM CaCl2, 150 mM NaCl, 0.05% Brij®-35) in a white 384-hole microtiter plate (MTP). The enzymatic reaction is started by adding the intramolecularly quenched Mca-Lys-Pro-Leu-Gly-Leu-Dpa(Dnp)-Ala-Arg-NH2 substrate (final concentration, for example, 5 μM; R&D Systems, ES-010), so as to result in a total test volume of 50 The course of the MMP-14 reaction is measured by measuring the fluorescence intensity (excitation 320 nm, emission 410 nm) over a suitable period of time (for example over 120 min at a temperature of 32° C.).

T1 sequence (P39900 106-470): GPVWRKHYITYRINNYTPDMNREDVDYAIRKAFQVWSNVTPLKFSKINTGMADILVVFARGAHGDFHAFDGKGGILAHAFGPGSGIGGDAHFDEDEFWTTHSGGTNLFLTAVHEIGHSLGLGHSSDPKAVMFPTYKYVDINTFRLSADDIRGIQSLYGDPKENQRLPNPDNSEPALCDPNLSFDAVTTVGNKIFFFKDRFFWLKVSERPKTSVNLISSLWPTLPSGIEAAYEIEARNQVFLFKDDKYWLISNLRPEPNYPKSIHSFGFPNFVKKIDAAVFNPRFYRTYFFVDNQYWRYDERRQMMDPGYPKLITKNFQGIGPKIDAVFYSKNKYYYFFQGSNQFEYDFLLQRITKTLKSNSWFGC

The term pIC50 denotes the IC50 on a negative log10 scale, so that one unit is a factor of ten. High values mean a low IC50, low ones a high IC50. `COC(=O)Nc1cccc(COc2ccc(C(=O)[C@@H]3CC[C@H](Cn4nnc5ccc(C(F)(F)F)cc5c4=O)[C@H]3C(=O)O)cc2)c1` (stereo in doubt) [Example 31, (+)-(1RS,2RS,5SR)-2-[4-({3-[(Methoxycarbonyl)amino]benzyl}oxy)benzoyl]-5-{[4-oxo-6-(trifluoromethyl)-1,2,3-benzotriazin-3(4H)-yl]methyl}cyclopentanecarboxylic acid]: the pIC50 is 10.92 in experiment [1]; 6.05 on MMP-16; 7.39 against MMP-10; 6.72 on MMP-13; 6.40 at MMP-14.

Consider `O=C(O)[C@H]1[C@H](Cn2nnc3ccccc3c2=O)CC[C@@H]1C(=O)c1ccc(OCc2cccc(Cl)c2)cc1` (racemic) [Example 2, (+/−)-(1RS,2RS,5SR)-2-{4-[(3-Chlorobenzyl)oxy]benzoyl}-5-[(4-oxo-1,2,3-benzotriazin-3(4H)-yl)methyl]cyclopentanecarboxylic acid], for which the pIC50 is 9.29 in experiment [1]; 6.00 against MMP-16; 6.51 against MMP-10; 6.40 at MMP-13; 6.32 on MMP-14.

Take `O=C(O)[C@@H]1[C@@H](Cn2nnc3ccc(C(F)(F)F)cc3c2=O)CC[C@H]1C(=O)c1ccc(OCC2CCCC2)cc1` (single isomer, unassigned) [Example 44, (+)-(1RS,2RS,5SR)-2-[4-(Cyclopentylmethoxy)benzoyl]-5-{[4-oxo-6-(trifluoromethyl)-1,2,3-benzotriazin-3(4H)-yl]methyl}cyclopentanecarboxylic acid]: the pIC50 was 10.62 in experiment [1]; 7.00 at MMP-16; 7.55 on MMP-10; 7.24 against MMP-13; 7.06 against MMP-14.

As to `O=C(O)[C@H]1[C@H](Cn2nnc3ccccc3c2=O)CC[C@@H]1C(=O)c1ccc(OCc2ccc(Cl)c(Cl)c2)cc1` (racemic) [Example 3, (+/−)-(1RS,2RS,5SR)-2-{4-[(3,4-Dichlorobenzyl)oxy]benzoyl}-5-[(4-oxo-1,2,3-benzotriazin-3(4H)-yl)methyl]cyclopentanecarboxylic acid], the pIC50 was 10.26 in experiment [1]; 5.40 against MMP-16; 6.37 against MMP-10; 6.47 at MMP-13; 6.15 against MMP-14.

`O=C(O)[C@H]1[C@H](Cn2nnc3ccc(C(F)(F)F)cc3c2=O)CC[C@@H]1C(=O)c1ccc(OCc2ccc(F)cc2)cc1` (racemic) [Example 12, (+/−)-(1RS,2RS,5SR)-2-{4-[(4-Fluorobenzyl)oxy]benzoyl}-5-{[4-oxo-6-(trifluoromethyl)-1,2,3-benzotriazin-3(4H)-yl]methyl}cyclopentanecarboxylic acid]: the pIC50 in experiment [1] is 10.72; against MMP-16, 7.07; on MMP-10, 7.82; against MMP-13 it was 7.41; on MMP-14, 7.11.

Turning to `O=C(O)[C@H]1[C@H](Cn2nnc3ccc(C(F)(F)F)cc3c2=O)CC[C@@H]1C(=O)c1ccc(OCC2CCCCC2)cc1` (racemic) [Example 40, (+/−)-(1RS,2RS,5SR)-2-[4-(Cyclohexylmethoxy)benzoyl]-5-{[4-oxo-6-(trifluoromethyl)-1,2,3-benzotriazin-3(4H)-yl]methyl}cyclopentanecarboxylic acid], the pIC50 is 10.32 in experiment [1]; 6.04 against MMP-16; 7.68 at MMP-10; 6.42 at MMP-13; 6.34 against MMP-14.

Consider `CCCCCCOc1ccc(C(=O)[C@@H]2CC[C@H](Cn3nnc4ccc(C)cc4c3=O)[C@H]2C(=O)O)cc1` (single isomer, unassigned) [Example 121, (+)-(1RS,2RS,5SR)-2-[4-(Hexyloxy)benzoyl]-5-[(6-methyl-4-oxo-1,2,3-benzotriazin-3(4H)-yl)methyl]cyclopentanecarboxylic acid], for which the pIC50 in experiment [1] is 10.11; against MMP-16, 5.72; against MMP-10, 7.03; at MMP-13 it was 6.52; against MMP-14, 6.09.

On to `O=C(O)[C@H]1[C@H](Cn2nnc3ccccc3c2=O)CC[C@@H]1C(=O)c1ccc(OCc2ccc(F)cc2)cc1` (racemic) [Example 1, (+/−)-(1RS,2RS,5SR)-2-{4-[(4-Fluorobenzyl)oxy]benzoyl}-5-[(4-oxo-1,2,3-benzotriazin-3(4H)-yl)methyl]cyclopentanecarboxylic acid], for which the pIC50 was 10.28 in experiment [1]; 6.89 at MMP-16; 7.48 against MMP-10; 7.96 against MMP-13; 7.62 on MMP-14.

For the molecule `O=C(O)[C@@H]1[C@@H](Cn2nnc3ccc(C(F)(F)F)cc3c2=O)CC[C@H]1C(=O)c1ccc(OCC2CCCCC2)cc1` (single isomer, unassigned) [Example 41, (+)-(1RS,2RS,5SR)-2-[4-(Cyclohexylmethoxy)benzoyl]-5-{[4-oxo-6-(trifluoromethyl)-1,2,3-benzotriazin-3(4H)-yl]methyl}cyclopentanecarboxylic acid], the pIC50 in experiment [1] was 11.00; against MMP-16, 6.57; against MMP-10, 7.70; against MMP-13, 6.96; against MMP-14, 6.96.

On to `CCCCCOc1ccc(C(=O)[C@H]2CC[C@@H](Cn3nnc4ccc(C)cc4c3=O)[C@@H]2C(=O)O)cc1` (racemic) [Example 123, (+/−)-(1RS,2SR,5RS)-2-[(6-Methyl-4-oxo-1,2,3-benzotriazin-3(4H)-yl)methyl]-5-[4-(pentyloxy)benzoyl]cyclopentanecarboxylic acid], for which the pIC50 in experiment [1] is 10.06; at MMP-16, 4.96; on MMP-10, 7.09; at MMP-13 it was 6.64; against MMP-14, 6.31.

In the case of `O=C(O)[C@@H]1[C@@H](Cn2nnc3ccc(C(F)(F)F)cc3c2=O)CC[C@H]1C(=O)c1ccc(OCCC2CCCC2)cc1` (single isomer, unassigned) [Example 55, (+)-(1RS,2RS,5SR)-2-[4-(2-Cyclopentylethoxy)benzoyl]-5-{[4-oxo-6-(trifluoromethyl)-1,2,3-benzotriazin-3(4H)-yl]methyl}cyclopentanecarboxylic acid], the pIC50 in experiment [1] is 10.43; at MMP-16, 5.29; on MMP-10, 7.30; against MMP-13, 5.77; against MMP-14, 5.62.
